{"source": "ChEMBL document CHEMBL4311992", "about": "“Discovery of 3-(((9H-purin-6-yl)amino)methyl)-4,6-dimethylpyridin-2(1H)-one derivatives as novel tubulin polymerization inhibitors for treatment of cancer” (Eur J Med Chem, 2019)", "key": {"[1]": {"biological_target": "Tyrosine-protein kinase JAK1 (Homo sapiens) (UniProt P23458)", "assay": "Inhibition of recombinant human JAK1 (866 to end residues) assessed as residual activity at 10 uM using GEEPLYWSFPAKKK as substrate measured after 40 mins in presence of [gamma33P]ATP by scintillation counting method"}, "[2]": {"biological_target": "Serine/threonine-protein kinase WNK1 (Homo sapiens) (UniProt Q9H4A3)", "assay": "Inhibition of human WNK1 (1 to 491 residues) using myelin basic protein as substrate measured after 120 mins in presence of [gamma33P]ATP by scintillation counting method", "set-up": "scale not given: the % may be the effect or the level left"}, "[3]": {"biological_target": "Serine/threonine-protein kinase SBK1 (Homo sapiens) (UniProt Q52WX2)", "sequence (Q52WX2 whole entry)": "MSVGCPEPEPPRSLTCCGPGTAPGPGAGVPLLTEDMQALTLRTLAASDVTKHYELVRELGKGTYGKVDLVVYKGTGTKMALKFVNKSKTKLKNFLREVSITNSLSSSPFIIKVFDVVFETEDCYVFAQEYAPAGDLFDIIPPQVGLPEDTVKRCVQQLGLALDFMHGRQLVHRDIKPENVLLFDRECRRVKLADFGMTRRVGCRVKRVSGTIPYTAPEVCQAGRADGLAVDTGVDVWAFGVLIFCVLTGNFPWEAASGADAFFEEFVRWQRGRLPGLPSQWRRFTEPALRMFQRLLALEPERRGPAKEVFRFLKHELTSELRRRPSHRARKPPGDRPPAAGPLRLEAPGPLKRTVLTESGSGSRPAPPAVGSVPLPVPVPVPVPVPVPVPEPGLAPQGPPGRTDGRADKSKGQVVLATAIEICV", "assay": "Inhibition of recombinant full-length human SBK1 assessed as residual activity at 10 uM using KKLRRTLSVA as substrate measured after 120 mins in presence of [gamma33P]ATP by scintillation counting method"}, "[4]": {"biological_target": "Citron Rho-interacting kinase (Homo sapiens) (UniProt O14578)", "assay": "Inhibition of recombinant human CRIK assessed as residual activity at 10 uM using KKLRRTLSVA as substrate measured after 120 mins in presence of [gamma33P]ATP by scintillation counting method"}, "[5]": {"assay": "Toxicity in nude BALB/c mouse assessed as change in albumin level at 40 to 80 mg/kg, po once daily for 4 weeks measured post-last dose", "type": "organism-based", "conditions": "in vivo, 672 h"}, "[6]": {"biological_target": "Platelet-derived growth factor receptor beta (Homo sapiens) (UniProt P09619)", "sequence (P09619 whole entry)": "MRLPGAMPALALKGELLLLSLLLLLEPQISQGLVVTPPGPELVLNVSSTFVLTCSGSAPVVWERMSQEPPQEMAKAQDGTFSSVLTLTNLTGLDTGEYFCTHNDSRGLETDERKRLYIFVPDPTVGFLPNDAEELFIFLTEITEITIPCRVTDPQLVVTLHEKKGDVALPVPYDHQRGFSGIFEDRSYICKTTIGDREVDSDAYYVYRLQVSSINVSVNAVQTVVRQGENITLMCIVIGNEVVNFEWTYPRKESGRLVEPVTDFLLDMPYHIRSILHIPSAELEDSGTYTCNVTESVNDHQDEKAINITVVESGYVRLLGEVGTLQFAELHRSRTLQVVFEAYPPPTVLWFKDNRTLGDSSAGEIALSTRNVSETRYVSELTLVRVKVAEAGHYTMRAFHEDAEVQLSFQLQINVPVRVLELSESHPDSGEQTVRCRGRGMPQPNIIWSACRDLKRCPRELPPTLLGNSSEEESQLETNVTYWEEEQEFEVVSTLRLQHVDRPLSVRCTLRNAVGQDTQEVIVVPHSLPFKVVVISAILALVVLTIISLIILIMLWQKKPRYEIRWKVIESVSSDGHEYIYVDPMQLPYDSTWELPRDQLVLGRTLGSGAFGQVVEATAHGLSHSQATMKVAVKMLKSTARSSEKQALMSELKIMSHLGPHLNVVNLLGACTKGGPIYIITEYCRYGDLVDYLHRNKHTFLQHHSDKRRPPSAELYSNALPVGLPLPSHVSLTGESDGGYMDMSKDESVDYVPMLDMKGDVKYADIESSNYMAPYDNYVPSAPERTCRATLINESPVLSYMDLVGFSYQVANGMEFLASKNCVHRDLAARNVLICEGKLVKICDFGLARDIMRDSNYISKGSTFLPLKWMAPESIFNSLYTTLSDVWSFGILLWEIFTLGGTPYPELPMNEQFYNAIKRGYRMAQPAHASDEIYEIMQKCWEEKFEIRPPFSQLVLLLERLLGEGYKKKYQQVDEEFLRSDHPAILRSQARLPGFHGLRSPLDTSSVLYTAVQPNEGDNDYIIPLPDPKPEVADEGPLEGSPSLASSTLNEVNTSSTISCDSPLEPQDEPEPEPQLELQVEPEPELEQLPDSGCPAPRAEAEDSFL", "assay": "Inhibition of recombinant human PDGFRbeta (557 to end residues) assessed as residual activity at 10 uM using poly(Glu, Tyr) 4:1 as substrate measured after 40 mins in presence of [gamma33P]ATP by scintillation counting method"}, "[7]": {"biological_target": "Serine/threonine-protein kinase MRCK beta (Homo sapiens) (UniProt Q9Y5S2)", "assay": "Inhibition of recombinant human MRCKbeta (1 to 473 residues) assessed as residual activity at 10 uM using KKRNRTLTV as substrate measured after 40 mins in presence of [gamma33P]ATP by scintillation counting method"}, "[8]": {"biological_target": "Tyrosine-protein kinase JAK3 (Homo sapiens) (UniProt P52333)", "assay": "Inhibition of recombinant human JAK3 (781 to end residues) assessed as residual activity at 10 uM using GGEEEEYFELVKKKK as substrate measured after 40 mins in presence of [gamma33P]ATP by scintillation counting method"}, "[9]": {"biological_target": "Dual specificity mitogen-activated protein kinase kinase 3 (Homo sapiens) (UniProt P46734)", "sequence (P46734 whole entry)": "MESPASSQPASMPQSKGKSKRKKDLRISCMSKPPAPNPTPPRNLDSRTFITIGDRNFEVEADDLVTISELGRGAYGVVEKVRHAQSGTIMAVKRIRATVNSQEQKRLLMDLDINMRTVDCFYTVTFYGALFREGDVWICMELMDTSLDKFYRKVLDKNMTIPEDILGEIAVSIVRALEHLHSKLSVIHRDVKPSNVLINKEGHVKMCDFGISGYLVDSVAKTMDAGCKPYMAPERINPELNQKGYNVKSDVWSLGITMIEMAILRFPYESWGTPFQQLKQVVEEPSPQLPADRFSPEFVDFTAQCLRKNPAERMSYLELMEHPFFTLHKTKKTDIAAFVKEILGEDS", "assay": "Inhibition of human MKK3 assessed as residual activity at 10 uM by radiometric method"}, "SW-620 [10]": {"system": "SW-620", "assay": "Induction of apoptosis in human SW620 cells assessed as necrotic cells at 50 nM measured after 48 hrs by Annexin V-FITC/propidium iodide staining-based flow cytometry (reference value: 2.71%)", "type": "functional"}, "[11]": {"biological_target": "Phosphatidylinositol 4-phosphate 5-kinase type-1 gamma (Homo sapiens) (UniProt O60331)", "assay": "Inhibition of recombinant full-length human PIP5K1gamma assessed as residual activity at 10 uM using phosphatidylinositol 4-phosphate as substrate measured after 40 mins by HTRF assay"}, "[12]": {"biological_target": "Cyclin-dependent kinase 2/cyclin E1 (Homo sapiens) (UniProt P24864+P24941)", "assay": "Inhibition of recombinant full-length human CDK2/cyclinE assessed as residual activity at 10 uM using histone H1 as substrate measured after 40 mins in presence of [gamma33P]ATP by scintillation counting method", "type": "protein-complex assay"}, "HepG2": {"system": "HepG2", "assay": "cells", "conditions": "Homo sapiens, HepG2, 72 h"}, "[13]": {"biological_target": "Mitogen-activated protein kinase kinase kinase kinase 1 (Homo sapiens) (UniProt Q92918)", "sequence (Q92918 whole entry, looked up, the tested form may be a part)": "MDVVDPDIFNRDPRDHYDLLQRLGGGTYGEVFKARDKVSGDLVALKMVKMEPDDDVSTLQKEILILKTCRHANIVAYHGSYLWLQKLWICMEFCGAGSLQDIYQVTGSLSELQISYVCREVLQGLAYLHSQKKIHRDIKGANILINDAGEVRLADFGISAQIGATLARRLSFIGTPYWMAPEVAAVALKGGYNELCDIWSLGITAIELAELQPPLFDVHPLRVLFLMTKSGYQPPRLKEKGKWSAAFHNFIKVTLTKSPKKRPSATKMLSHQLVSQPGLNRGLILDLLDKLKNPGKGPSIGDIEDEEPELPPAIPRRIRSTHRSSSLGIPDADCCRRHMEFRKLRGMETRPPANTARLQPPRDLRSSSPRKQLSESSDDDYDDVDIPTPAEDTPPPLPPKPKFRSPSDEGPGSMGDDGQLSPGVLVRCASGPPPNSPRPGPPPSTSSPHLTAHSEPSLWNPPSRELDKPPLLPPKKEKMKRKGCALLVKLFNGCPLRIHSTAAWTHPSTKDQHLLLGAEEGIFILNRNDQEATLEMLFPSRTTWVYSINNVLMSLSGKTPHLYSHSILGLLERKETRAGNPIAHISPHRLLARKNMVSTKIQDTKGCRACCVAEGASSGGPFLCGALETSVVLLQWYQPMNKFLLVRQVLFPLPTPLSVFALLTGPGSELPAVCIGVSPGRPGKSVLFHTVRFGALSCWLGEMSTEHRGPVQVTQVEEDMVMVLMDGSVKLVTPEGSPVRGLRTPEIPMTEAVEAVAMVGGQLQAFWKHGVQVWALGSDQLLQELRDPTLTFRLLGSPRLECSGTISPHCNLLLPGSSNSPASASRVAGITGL", "assay": "Inhibition of recombinant human HPK1 (1 to 346 residues) assessed as residual activity at 10 uM using myelin basic protein as substrate measured after 40 mins in presence of [gamma33P]ATP by scintillation counting method"}, "[14]": {"system": "Angiopoietin-1 receptor (Homo sapiens), Q02763 [Q939H,Q940H,Y897S]", "assay": "Inhibition of human Tie2 Q939H/Q940H/Y897S mutant (771 to end residues) using EFPIYDFLPAKKK as substrate measured after 40 mins in presence of [gamma33P]ATP by scintillation counting method", "set-up": "scale not given: the % may be the effect or the level left"}, "SW-620 [15]": {"system": "SW-620", "assay": "Induction of apoptosis in human SW620 cells assessed as early apoptotic cells at 50 nM measured after 48 hrs by Annexin V-FITC/propidium iodide staining-based flow cytometry (reference value: 0.773%)", "type": "functional"}, "[16]": {"biological_target": "Calcium/calmodulin-dependent protein kinase type II subunit alpha (Homo sapiens) (UniProt Q9UQM7)", "assay": "Inhibition of recombinant full-length human CaMK2alpha assessed as residual activity at 10 uM using calmodulin as substrate measured after 40 mins in presence of [gamma33P]ATP by scintillation counting method"}, "[17]": {"biological_target": "Mast/stem cell growth factor receptor Kit (Homo sapiens) (UniProt P10721)", "assay": "Inhibition of recombinant human c-Kit (544 to end residues) assessed as residual activity at 10 uM using poly(Glu, Tyr) 4:1 as substrate measured after 40 mins in presence of [gamma33P]ATP by scintillation counting method"}, "[18]": {"biological_target": "Inhibitor of nuclear factor kappa-B kinase subunit beta (Homo sapiens) (UniProt O14920)", "sequence (O14920 whole entry)": "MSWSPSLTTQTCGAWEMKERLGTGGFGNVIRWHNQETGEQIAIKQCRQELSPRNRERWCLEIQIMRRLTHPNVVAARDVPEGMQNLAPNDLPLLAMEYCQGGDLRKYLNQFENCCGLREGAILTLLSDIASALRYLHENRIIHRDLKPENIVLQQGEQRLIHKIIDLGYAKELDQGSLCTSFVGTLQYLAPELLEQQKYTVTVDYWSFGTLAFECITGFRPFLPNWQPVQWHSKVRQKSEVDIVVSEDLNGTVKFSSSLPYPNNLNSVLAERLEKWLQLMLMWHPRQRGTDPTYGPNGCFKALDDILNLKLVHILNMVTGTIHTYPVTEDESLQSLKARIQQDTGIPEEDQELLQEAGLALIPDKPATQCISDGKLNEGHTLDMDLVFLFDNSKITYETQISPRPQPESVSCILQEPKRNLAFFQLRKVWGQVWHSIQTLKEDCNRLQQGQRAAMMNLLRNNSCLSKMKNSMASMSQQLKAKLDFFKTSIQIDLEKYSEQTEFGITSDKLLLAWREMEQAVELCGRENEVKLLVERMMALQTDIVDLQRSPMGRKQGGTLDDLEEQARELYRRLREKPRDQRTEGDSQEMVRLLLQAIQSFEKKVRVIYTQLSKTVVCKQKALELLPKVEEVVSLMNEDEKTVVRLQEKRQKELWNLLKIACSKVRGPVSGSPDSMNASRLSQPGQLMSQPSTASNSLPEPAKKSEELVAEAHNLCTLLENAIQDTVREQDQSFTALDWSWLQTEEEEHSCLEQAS", "assay": "Inhibition of recombinant full-length human IKKbeta assessed as residual activity at 10 uM using peptide substrate measured after 40 mins in presence of [gamma33P]ATP by scintillation counting method"}, "HCT-116": {"system": "HCT-116", "assay": "Induction of apoptosis in human HCT116 cells assessed as necrotic cells at 50 nM measured after 48 hrs by Annexin V-FITC/propidium iodide staining-based flow cytometry (reference value: 1.16%)", "type": "functional"}, "[19]": {"biological_target": "Tyrosine-protein kinase ABL1 (Homo sapiens) (UniProt P00519)", "assay": "Inhibition of recombinant human ABL (27 to end residues) assessed as residual activity at 10 uM using EAIYAAPFAKKK as substrate measured after 40 mins in presence of [gamma33P]ATP by scintillation counting method"}, "[20]": {"assay": "Hepatotoxicity in nude BALB/c mouse at 80 mg/kg, po administered once daily for 4 weeks measured post-last dose by hematoxylin and eosin staining-based assay", "type": "toxicity, organism-based", "conditions": "in vivo, 672 h"}, "[21]": {"biological_target": "Serine/threonine-protein kinase 25 (Homo sapiens) (UniProt O00506)", "sequence (O00506 whole entry, looked up, the tested form may be a part)": "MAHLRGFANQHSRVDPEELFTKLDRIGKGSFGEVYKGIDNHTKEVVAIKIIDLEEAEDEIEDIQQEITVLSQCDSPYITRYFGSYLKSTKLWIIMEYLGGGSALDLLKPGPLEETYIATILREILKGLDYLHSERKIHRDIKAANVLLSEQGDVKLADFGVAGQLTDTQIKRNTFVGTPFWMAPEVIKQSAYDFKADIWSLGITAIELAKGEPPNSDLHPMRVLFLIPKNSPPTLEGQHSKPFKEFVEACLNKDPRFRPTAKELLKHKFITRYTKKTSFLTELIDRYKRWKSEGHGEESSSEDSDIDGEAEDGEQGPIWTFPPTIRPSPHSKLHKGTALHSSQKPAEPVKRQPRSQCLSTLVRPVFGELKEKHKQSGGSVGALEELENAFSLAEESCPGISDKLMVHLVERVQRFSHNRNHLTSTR", "assay": "Inhibition of human STK25 (1 to 308 residues) using RLGRDKYKTLRQIRQ as substrate measured after 40 mins in presence of [gamma33P]ATP by scintillation counting method", "set-up": "scale not given: the % may be the effect or the level left"}, "[22]": {"biological_target": "Tyrosine-protein kinase JAK2 (Homo sapiens) (UniProt O60674)", "sequence (O60674 whole entry)": "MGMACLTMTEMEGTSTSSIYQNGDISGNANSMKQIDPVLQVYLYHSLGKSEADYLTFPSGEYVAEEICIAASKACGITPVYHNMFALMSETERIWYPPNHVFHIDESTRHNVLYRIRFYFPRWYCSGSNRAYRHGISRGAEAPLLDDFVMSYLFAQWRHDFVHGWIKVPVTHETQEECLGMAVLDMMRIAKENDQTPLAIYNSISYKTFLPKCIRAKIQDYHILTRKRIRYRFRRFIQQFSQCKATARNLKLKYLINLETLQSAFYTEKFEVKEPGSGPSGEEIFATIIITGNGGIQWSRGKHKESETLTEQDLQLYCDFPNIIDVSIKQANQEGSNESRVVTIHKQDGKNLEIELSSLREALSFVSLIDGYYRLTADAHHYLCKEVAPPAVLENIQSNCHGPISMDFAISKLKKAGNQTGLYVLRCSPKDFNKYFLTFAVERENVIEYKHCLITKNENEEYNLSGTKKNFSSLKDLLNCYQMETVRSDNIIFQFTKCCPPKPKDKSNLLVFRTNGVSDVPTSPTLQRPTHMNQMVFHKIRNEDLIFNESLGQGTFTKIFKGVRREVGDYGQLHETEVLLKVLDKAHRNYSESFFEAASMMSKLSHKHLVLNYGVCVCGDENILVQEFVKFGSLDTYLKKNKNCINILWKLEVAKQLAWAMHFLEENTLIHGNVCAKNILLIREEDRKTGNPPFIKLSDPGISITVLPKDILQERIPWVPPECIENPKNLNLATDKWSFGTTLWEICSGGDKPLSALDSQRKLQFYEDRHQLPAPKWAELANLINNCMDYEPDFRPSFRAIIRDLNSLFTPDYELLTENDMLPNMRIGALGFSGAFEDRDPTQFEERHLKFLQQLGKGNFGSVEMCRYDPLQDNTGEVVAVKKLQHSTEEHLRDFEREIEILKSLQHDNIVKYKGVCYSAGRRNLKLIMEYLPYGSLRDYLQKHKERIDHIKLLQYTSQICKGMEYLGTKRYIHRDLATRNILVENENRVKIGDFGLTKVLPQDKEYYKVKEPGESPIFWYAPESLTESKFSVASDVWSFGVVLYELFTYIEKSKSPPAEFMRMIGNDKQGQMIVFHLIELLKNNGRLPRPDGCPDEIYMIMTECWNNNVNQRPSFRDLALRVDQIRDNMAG", "assay": "Inhibition of recombinant human JAK2 (808 to end residues) assessed as residual activity at 10 uM using KTFCGTPEYLAPEVRREPRILSEEEQEMFRDFDYIADWC as substrate measured after 40 mins in presence of [gamma33P]ATP by scintillation counting method"}, "[23]": {"biological_target": "Serine/threonine-protein kinase Nek1 (Homo sapiens) (UniProt Q96PY6)", "assay": "Inhibition of recombinant human NEK1 (1 to 505 residues) assessed as residual activity at 10 uM using RLGRDKYKTLRQIRQ as substrate measured after 40 mins in presence of [gamma33P]ATP by scintillation counting method"}}}
{"smiles": "Cc1cc(C)c(CNc2nc(Cl)nc3c2ncn3C2CCCC2)c(=O)[nH]1", "values": [{"measurement": "Activity", "setting": "[1]", "result": 97.5, "unit": "%"}, {"measurement": "Activity", "setting": "[2]", "result": 104, "unit": "%"}, {"measurement": "Activity", "setting": "[3]", "result": 107, "unit": "%"}, {"measurement": "Activity", "setting": "[4]", "result": 109, "unit": "%"}, {"measurement": "Activity", "setting": "[5]", "result": "Non-Toxic"}, {"measurement": "Activity", "setting": "[6]", "result": 117, "unit": "%"}, {"measurement": "Activity", "setting": "[7]", "result": 112, "unit": "%"}, {"measurement": "Activity", "setting": "[8]", "result": 90, "unit": "%"}, {"measurement": "Activity", "setting": "[9]", "result": 100, "unit": "%"}, {"measurement": "Activity", "setting": "SW-620 [10]", "result": 6.3, "unit": "%"}, {"measurement": "Activity", "setting": "[11]", "result": 99.5, "unit": "%"}, {"measurement": "Activity", "setting": "[12]", "result": 115, "unit": "%"}, {"measurement": "IC50", "setting": "HepG2", "result": 80, "unit": "nM"}, {"measurement": "Activity", "setting": "[13]", "result": 106, "unit": "%"}, {"measurement": "Activity", "setting": "[14]", "result": 114, "unit": "%"}, {"measurement": "Activity", "setting": "SW-620 [15]", "result": 1.01, "unit": "%"}, {"measurement": "Activity", "setting": "[16]", "result": 92, "unit": "%"}, {"measurement": "Activity", "setting": "[17]", "result": 99.5, "unit": "%"}, {"measurement": "Activity", "setting": "[18]", "result": 102, "unit": "%"}, {"measurement": "Activity", "setting": "HCT-116", "result": 7.59, "unit": "%"}, {"measurement": "Activity", "setting": "[19]", "result": 108, "unit": "%"}, {"measurement": "Activity", "setting": "[20]", "result": "Non-Toxic"}, {"measurement": "Activity", "setting": "[21]", "result": 106, "unit": "%"}, {"measurement": "Activity", "setting": "[22]", "result": 115, "unit": "%"}, {"measurement": "Activity", "setting": "[23]", "result": 114, "unit": "%"}]}
